In paper PMC5929447 (Oncotarget, 2018):
Several values for one entry are separate records, joined by “and”; a condition that tells them apart may be missing. Identical values can stand only once.

Legend:
[1] = test system: Mantle Cell Lymphoma cell lines; test: CellTiter-Glo viability, MCL cell line panel; format: cell-based; settings: 72 h; two MCL cell lines out of five tested
Procedure: (§1) Cells were seeded into 96-well plates and treated at 8 points with 1:2 serial dilution of compounds. Cell viability was assessed and assayed for viability using CellTiter-Glo reagent (Promega) following the manufacturer's instructions. Plates were read using Tecan luminescence plate reader. Results were normalized to the viability of cells without compounds (control wells). The IC50 values were calculated using nonlinear regression algorithms in XCell software.

[2] = test system: Diffuse Large B-Cell Lymphoma cell lines; test: CellTiter-Glo viability, DLBCL cell line panel; format: cell-based; settings: 72 h, six out of eleven DLBCL cell lines tested
Procedure: as §1

[3] = test system: RS4;11 cells; test: Apoptosis hallmarks in RS4;11 cells (annexin V/PI flow cytometry, MSD cleaved caspase-3 and PARP); format: cell-based
Procedure: Cells were incubated with 200 μl of binding buffer containing AnnexinV-FITC (Invitrogen) and propidium iodide (PI, Sigma) during 15 min at 20° C in the dark. THP-1 cells were incubated with 200 μl of binding buffer containing AnnexinV-APC (BD Biosciences) and DAPI (Sigma). 400 μl of binding buffer was added and samples were kept at 4° C before cytometric analysis. […] Fluorescence was collected at 520 (FITC), 630 nm (PI), 660 nm (APC) and 470 (DAPI). Numbers of apoptotic cells (addition of primary apoptosis, secondary apoptosis and necrosis) was normalized to the total numbers of cells per tubes. page 6: Cleaved PARP and cleaved caspase-3 Cleared lysates (5 μg) were assayed for immunodetection immunodetection by MesoScale Discovery of cleaved PARP and cleaved caspase-3 with MSD (MSD) assay Apoptosis Panel Whole Cell Lysate kit (MSD […]) in 96-well plates according to manufacturer 's instructions, 24 h after seeding, cells were treated with the and analyzed on the Sector Image 2400. Control DMSO indicated compounds for 4 h and harvested in lysis buffer conditions were set to 100% and fold-activation calculated. […] Cleaved caspase-3 (C) and cleaved PARP (D) was measured using MesoScale Discovery Apoptosis panel. […]

[4] = test system: BAX-deficient RS4;11 cells; test: Viability of RS4;11 cells transduced with shRNA BAX; format: cell-based; settings: 72 h
[5] = biological target: BCL-2 (Homo sapiens, UniProt P10415); test: Isothermal titration calorimetry (ITC), BCL-2; settings: binding to BCL-2
Chain of BCL-2 (P10415 whole entry): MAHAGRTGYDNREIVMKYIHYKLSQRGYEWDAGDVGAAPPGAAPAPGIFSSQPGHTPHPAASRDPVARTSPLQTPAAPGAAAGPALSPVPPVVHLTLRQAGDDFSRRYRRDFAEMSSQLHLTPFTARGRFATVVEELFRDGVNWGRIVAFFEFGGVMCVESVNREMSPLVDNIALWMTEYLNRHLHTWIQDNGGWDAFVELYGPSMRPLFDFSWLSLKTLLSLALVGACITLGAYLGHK
Procedure: The protein was dialyzed prior to use in 2 L of 25 mM HEPES, 150 mM NaCl, 5% glycerol (v/v), 0.5% MTG (v/v) at pH 7.4 for 3 hours at room temperature. The protein was dialyzed using a 3.5 K MWCO Slide-A-Lyzer™ cassette. The protein solution was recovered, spin-filtered through a […] frit. The filtered protein was quantified by UV absorbance at 280 nm using an extinction coefficient of 36440 M^-1cm^-1. 500 ml of dialysis buffer was retained (remainder used to rinse out SCHOT bottle) and degassed for a minimum of 30 mins under vacuum with constant stirring. […] The solutions were carefully matched to ensure same solvent and buffer conditions were present in both syringe and cell (this is to minimize heat of dilution effects). The final solution was the dialysis buffer plus 1% DMSO and 0.05% P20. The experiment was performed over 13 injections with stirring at 1000 rpm, gain setting low and at 25° C. Pure water was used in the reference cell. The first injection was 0.5 μl with a duration of 1 second with a gap of 150 seconds until the further 12 injections of 3.05 μl with a duration 6.1 seconds and a 240 second interval between injections. Data was analyzed using the vendor supplied software, PEAQ-ITC Analysis Software. The data model used was the single site model. The data shown is the average of 2 or 3 independent experiments.

[6] = test system: control RS4;11 cells (shRNA CT); test: Viability of RS4;11 cells transduced with shRNA CT (control); format: cell-based; settings: Homo sapiens, 72 h
[7] = biological target: BCL-XL (Homo sapiens, UniProt Q07817); test: Fluorescence polarization (FP) with Fluorescein-PUMA, BCL-XL; format: binding; settings: Fluorescein-PUMA as binder; read-out: FP_BCL-XL_KI
Chain of BCL-XL (Q07817 whole entry): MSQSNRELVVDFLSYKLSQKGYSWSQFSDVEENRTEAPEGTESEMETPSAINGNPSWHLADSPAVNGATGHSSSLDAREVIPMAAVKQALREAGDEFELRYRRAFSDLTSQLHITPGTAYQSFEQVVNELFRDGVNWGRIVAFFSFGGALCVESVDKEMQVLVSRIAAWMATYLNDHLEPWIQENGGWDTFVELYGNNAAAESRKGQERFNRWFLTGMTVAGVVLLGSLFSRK
Procedure: Final concentrations of MCL-1, BFL-1, BCL-2 and BCL-XL proteins were 10, 10, 10 and 20 nM respectively. The assay plates were incubated for 2 hours at room temperature and the FP was measured on a Synergy 2 reader (Ex. 528 nm, Em. 640 nm, Cut-off 510 nm). The binding of increasing doses of compound was expressed as a percentage reduction in mP compared to the window established between ‘DMSO only’ and ‘total inhibition’ control (30 μM PUMA). […] The KI was subsequently calculated as previously described [42].

[8] = test system: Toledo cells; test: CellTiter-Glo viability, Toledo; format: cell-based; settings: Homo sapiens, 72 h
Procedure: as §1

[9] = test system: Burkitt lymphoma cell lines; test: CellTiter-Glo viability, Burkitt lymphoma cell line panel; format: cell-based; settings: 72 h; all Burkitt lymphoma cell lines tested
Procedure: as §1

[10] = biological target: BCL-XL/BAX complex (Homo sapiens, UniProt Q07817); test: Co-immunoprecipitation in BCL-XL-overexpressing HeLa cells; settings: 2 h
Chain of BCL-XL/BAX complex (Q07817 whole entry, one chain of several): as the sequence (Q07817 whole entry) above
Procedure: Effecten reagent (Qiagen), with 3xFlag-tagged BCL-XL
24 h later, transfected Hela and RS4;11
were put under neomycin selection (800 µg/ml, Invitrogen) were then subjected to immunoprecipitation with anti-

[11] = test system: caspase-3 activity in RS4;11 tumor xenografts; test: Caspase-3 activity in RS4;11 tumor xenografts; format: in vivo; settings: 16 h post dosing, SCID mice
Procedure: Body weights were recorded and tumors were measured with digital calipers twice to three times a week. Tumor volume was calculated using the formula: length × width^2/2. Percent changes in body weights was calculated as (BWcurrent - BWinitial)/(BWinitial) × 100. Data is presented as percent body weight change from the day of treatment initiation. When tumors reached approximately 200 mm^3 for efficacy studies or 300 mm^3 for pharmacodynamic studies, mice were randomized. […] Mice were treated via oral gavage at 10 ml/kg with the doses and schedules described in the figure. For pharmacodynamic studies, blood and tumors were removed 16 h post dosing and immediately snap-frozen. Total proteins were extracted from the tumors and caspase-3 activity was assessed in triplicate using CaspACE® Assay System (Promega). Platelet cell counts were determined 16 hours post dosing using Coulter AcT diff (Beckman).

[12] = biological target: MCL-1 (Homo sapiens, UniProt Q07820); test: Fluorescence polarization (FP) with Fluorescein-PUMA, MCL-1; format: binding
Chain of MCL-1 (Q07820 whole entry): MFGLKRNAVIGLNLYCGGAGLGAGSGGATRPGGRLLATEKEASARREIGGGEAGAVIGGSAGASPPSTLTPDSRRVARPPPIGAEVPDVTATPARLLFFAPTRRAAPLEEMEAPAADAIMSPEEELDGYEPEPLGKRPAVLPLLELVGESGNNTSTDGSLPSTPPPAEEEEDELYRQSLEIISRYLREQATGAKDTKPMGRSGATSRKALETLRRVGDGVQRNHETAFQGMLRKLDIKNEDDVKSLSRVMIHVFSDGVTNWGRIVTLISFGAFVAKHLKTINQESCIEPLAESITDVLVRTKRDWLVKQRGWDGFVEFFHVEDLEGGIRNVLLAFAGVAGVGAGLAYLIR

- IC50 [1]: < 1000 nM
- IC50 [2]: < 1000 nM
- IC50 ([4]; Homo sapiens, RS4-11, shRNA BAX): 2700 nM
- N (sites), stoichiometry [5]: 1.1 sites
- ∆H (enthalpy delta) [5]: –13.5 kcal/mol
- IC50 [6]: 57 nM
- Ki [7]: 520 nM
- IC50 [9]: > 10000 nM
- binding to MCL-1 ([12]; FP): No significant binding
- FP_MCL-1, % of inhibition at the maximal tested concentration ([12]; at 30E-06 M): 4.3% and 4.5%
Structure (SMILES): O=C(c1cc(-c2cc3c(cc2C(=O)N2Cc4ccccc4C[C@H]2CN2CCOCC2)OCO3)n2c1CCCC2)N(c1ccccc1)c1ccc(O)cc1 [S55746]
- apoptosis induction, externalization of phosphatidylserine (PS+ cells) ([3]; 2 h): rapidly induced apoptosis in a concentration dependent-manner
- cleavage of caspase-3 and PARP ([3]; MSD assay): observed upon treatment by S55746 in a concentration dependent manner
- reduction of sensitivity of BAX-deficient versus control RS4;11 [4]: ≈ 50 fold
- IC50 [8]: 401 nM
- effect on BCL-XL/BAX complex in BCL-XL-overexpressing HeLa cells [10]: without any significant effect on the BCL-XL/BAX complex
- caspase-3 activity in tumor, times higher than in vehicle-treated animals ([11]; 25 mg/kg single oral gavage): about 11 times
- caspase-3 activity in tumor, times higher than in vehicle-treated animals ([11]; 100 mg/kg single oral gavage): ~28 times
